The target of the experiment is T1, human mAChR M1 (Homo sapiens, UniProt P11229).
T1 sequence (P11229 1-460): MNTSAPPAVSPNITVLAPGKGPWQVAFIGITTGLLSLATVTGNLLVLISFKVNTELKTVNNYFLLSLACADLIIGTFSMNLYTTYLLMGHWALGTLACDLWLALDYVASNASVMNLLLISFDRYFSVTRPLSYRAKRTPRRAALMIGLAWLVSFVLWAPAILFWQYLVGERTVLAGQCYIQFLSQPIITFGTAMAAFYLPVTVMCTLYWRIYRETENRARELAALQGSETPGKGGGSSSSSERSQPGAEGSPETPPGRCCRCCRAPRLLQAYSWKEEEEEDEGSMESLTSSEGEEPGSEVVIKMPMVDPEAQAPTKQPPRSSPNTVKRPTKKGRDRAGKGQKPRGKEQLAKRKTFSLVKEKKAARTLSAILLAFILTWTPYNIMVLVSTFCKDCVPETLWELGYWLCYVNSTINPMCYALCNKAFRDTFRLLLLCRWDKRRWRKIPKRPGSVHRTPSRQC
Put plainly: mAChR M1 cell-based functional assay (calcium mobilization, PAM activity). The settings on record: CHO-K1 cells expressing hM1, calcium flux (Fluo-4); for EC50: concentration-dependent increase in the EC20 acetylcholine response; for Emax: potentiation of EC20 acetylcholine response. From the text:
Chinese hamster ovary (CHO-K1) cells stably expressing rat (r)M1 were purchased from the American Type Culture Collection and cultured according to their indicated protocol. CHO cells stably expressing human (h)M2, hM3, and hM5 were described previously (Levey, et al., 1991); hM1 and hM4 cDNAs were purchased from Missouri S&T cDNA Resource; rM4 cDNA was provided by T. I. Bonner (National Institutes of Health, Bethesda, Md.). rM2 and rM3 were cloned from a rat brain cDNA library and sequence verified. hM1, rM2, rM3, hM4, and rM4 cDNAs were used to stably transfect CHO-K1 cells purchased from the American Type Culture Collection using Lipofectamine 2000. To make stable rM2, hM2, rM3, hM4, and rM4 cell lines for use in calcium mobilization assays, these cells also were stably transfected with a chimeric G-protein (Gqi5) (provided by B. R. Conklin, University of California, San Francisco) using Lipofectamine 2000. rM1, hM1, rM3, hM3, rM5, and hM5 cells were grown in Ham's F-12 medium containing 10% heat-inactivated fetal bovine serum (FBS), 20 mM HEPES, and 50 μg/mL G418 sulfate. rM2-Gqi5, hM2-Gqi5, and hM4-Gqi5 cells were grown in the same medium also containing 500 μg/mL Hygromycin B. Stable rM4-Gqi5 cells were grown in DMEM containing 10% heat-inactivated FBS, 20 mM HEPES, 400 μg/mL G418 sulfate, and 500 μg/mL Hygromycin B.
For high throughput measurement of agonist-evoked increases in intracellular calcium, CHO-K1 cells stably expressing muscarinic receptors were plated in growth medium lacking G418 and hygromycin at 15,000 cells/20 μL/well in Greiner 384-well black-walled, tissue culture (TC)-treated, clear-bottom plates (VWR). Cells were incubated overnight at 37° C. and 5% CO2. The next day, cells were washed using an ELX 405 (BioTek) with four washes (80 μL) of assay buffer then aspirated to 20 μL. Next, 20 μL of 16 μM Fluo-4/acetoxymethyl ester (Invitrogen, Carlsbad, Calif.) prepared as a 2.3 mM stock in DMSO and mixed in a 1:1 ratio with 10% (w/v) Pluronic F-127 and diluted in assay buffer was added to the wells and the cell plates were incubated for 50 min at 37° C. and 5% CO2. Dye was removed by washing with the ELX 405 (four 80 μL washes of assay buffer) then aspirated to 20 μL. Compound master plates were formatted in an 11 point CRC format (1:3 dilutions) in 100% DMSO with a starting concentration of 10 mM using the BRAVO liquid handler (Agilent). Test compound CRCs were then transferred to daughter plates (240 nL) using the Echo acoustic plate reformatter (Labcyte, Sunnyvale, Calif.) and then diluted into assay buffer (40 μL) to a 2× stock using a Thermo Fisher Combi (Thermo Fisher Scientific, Waltham, Mass.).
Calcium flux was measured using the Functional Drug Screening System (FDSS) 6000 (Hamamatsu Corporation, Tokyo, Japan) as an increase in the fluorescent static ratio. Compounds were applied to cells (20 μL, 2×) using the automated system of the FDSS 6000 at 4 s into the 300 s protocol and the data were collected at 1 Hz. At 144 s into the 300s protocol, 10 μL of an EC20 concentration of the muscarinic receptor agonist acetylcholine was added (5×), followed by the addition of 12 μL an EC80 concentration of acetylcholine at the 230 s time point (5×). Agonist activity was analyzed as a concentration-dependent increase in calcium mobilization upon compound addition. Emax values for agonist activity are expressed relative to the maximum for acetylcholine. Positive allosteric modulator activity was analyzed as a concentration-dependent increase in the EC20 acetylcholine response. Antagonist activity was analyzed as a concentration-dependent decrease in the EC80 acetylcholine response. Concentration-response curves were generated using a four-parameter logistical equation in XLfit curve fitting software (IDBS, Bridgewater, N.J.) for Excel (Microsoft, Redmond, Wash.) or Prism (GraphPad Software, Inc., San Diego, Calif.). […]
In general terms: Calcium flux is commonly read through the fluorescence of an indicator in the cells.

Consider `Cn1ccc(-c2ccc(Cc3cc(C(=O)NC4CCOCC4)c4nccn4c3)cc2)n1` [compound 1, 6-[[4-(1-methylpyrazol-3-yl)phenyl]methyl]-N-tetrahydropyran-4-yl-imidazo[1,2-a]pyridine-8-carboxamide], for which the EC50 stood at 6340 nM and the Emax was 68%.
For `Cn1ccc(-c2ccc(Cc3cc(C(=O)N[C@@H]4CCCC[C@H]4O)c4nccn4c3)cc2)n1` [compound 2, N-[(1R,2R)-2-hydroxycyclohexyl]-6-[[4-(1-methylpyrazol-3-yl)phenyl]methyl]imidazo[1,2-a]pyridine-8-carboxamide] the same measures were 313 nM and 77%.
`Cn1ccc(-c2ccc(Cc3cc(C(=O)NC4CC5(COC5)C4)c4nccn4c3)cc2)n1` [compound 3, 6-[[4-(1-methylpyrazol-3-yl)phenyl]methyl]-N-(2-oxaspiro[3.3]heptan-6-yl)imidazo[1,2-a]pyridine-8-carboxamide]: the EC50 worked out at 4290 nM and the maximal response (Emax) was found to be 76%.
As to `Cn1ccc(-c2ccc(Cc3cc(C(=O)N[C@@H]4CCC[C@H]4O)c4nccn4c3)cc2)n1` [compound 4, N-[(1R,2R)-2-hydroxycyclopentyl]-6-[[4-(1-methylpyrazol-3-yl)phenyl]methyl]imidazo[1,2-a]pyridine-8-carboxamide], the EC50 was determined as 1500 nM and the Emax was determined as 80%.
For `Cn1ccc(-c2ccc(Cc3cc(C(=O)N[C@@H]4CCOC[C@H]4O)c4nccn4c3)cc2)n1` [compound 5, N-[(3S,4R)-3-hydroxytetrahydropyran-4-yl]-6-[[4-(1-methylpyrazol-3-yl)phenyl]methyl]imidazo[1,2-a]pyridine-8-carboxamide] the same measures were 384 nM and 78%.
`Cn1ccc(-c2ccc(Cc3cc(C(=O)N[C@H]4CCOC[C@@H]4O)c4ncnn4c3)cc2)n1` [compound 6, N-[(3R,4S)-3-hydroxytetrahydropyran-4-yl]-6-[[4-(1-methylpyrazol-3-yl)phenyl]methyl]-[1,2,4]triazolo[1,5-a]pyridine-8-carboxamide]: the half-maximal effective concentration (EC50) worked out at 790 nM and the maximal response (Emax) came out at 85%.
With `Cn1ccc(-c2ccc(Cc3cc(C(=O)N[C@H]4CCCC[C@@H]4O)c4ncnn4c3)cc2)n1` [compound 7, N-[(1S,2S)-2-hydroxycyclohexyl]-6-[[4-(1-methylpyrazol-3-yl)phenyl]methyl]-[1,2,4]triazolo[1,5-a]pyridine-8-carboxamide], the EC50 turned out to be 483 nM and the Emax turned out to be 86%.
As for `Cn1ccc(-c2ccc(Cc3cc(C(=O)NC4CCOCC4)c4ncnn4c3)cc2)n1` [compound 8, 6-[[4-(1-methylpyrazol-3-yl)phenyl]methyl]-N-tetrahydropyran-4-yl-[1,2,4]triazolo[1,5-a]pyridine-8-carboxamide], the Emax was 53%.
As for `Cn1ccc(-c2ccc(Cc3cc(C(=O)NC4CC5(COC5)C4)c4ncnn4c3)cc2)n1` [compound 9, 6-[[4-(1-methylpyrazol-3-yl)phenyl]methyl]-N-(2-oxaspiro[3.3]heptan-6-yl)-[1,2,4]triazolo[1,5-a]pyridine-8-carboxamide], the EC50 is 4860 nM and the Emax worked out at 66%.
For `Cn1ccc(-c2ccc(Cc3cc(C(=O)N[C@@H]4CC[C@H]4O)c4ncnn4c3)cc2)n1` [compound 10, N-[(1R,2R)-2-hydroxycyclobutyl]-6-[[4-(1-methylpyrazol-3-yl)phenyl]methyl]-[1,2,4]triazolo[1,5-a]pyridine-8-carboxamide] the same measures were 4070 nM and 74%.
For `Cn1ccc(-c2ccc(Cc3cc(C(=O)N[C@H]4CCC[C@@H]4O)c4ncnn4c3)cc2)n1` [compound 11, N-[(1S,2S)-2-hydroxycyclopentyl]-6-[[4-(1-methylpyrazol-3-yl)phenyl]methyl]-[1,2,4]triazolo[1,5-a]pyridine-8-carboxamide] the same measures were 2540 nM and 88%.
As to `Cn1cc(-c2ccc(Cc3cc(C(=O)N[C@H]4CCOC[C@@H]4O)c4ncnn4c3)cn2)cn1` [compound 12, N-[(3R,4S)-3-hydroxytetrahydropyran-4-yl]-6-[[6-(1-methylpyrazol-4-yl)-3-pyridyl]methyl]-[1,2,4]triazolo[1,5-a]pyridine-8-carboxamide], the EC50 came out at 903 nM and the Emax is 83%.
On to `Cn1cc(-c2ccc(Cc3cc(C(=O)N[C@H]4CCCC[C@@H]4O)c4ncnn4c3)cn2)cn1` [compound 13, N-[(1S,2S)-2-hydroxycyclohexyl]-6-[[6-(1-methylpyrazol-4-yl)-3-pyridyl]methyl]-[1,2,4]triazolo[1,5-a]pyridine-8-carboxamide], for which the EC50 was 729 nM and the Emax was 84%.
In the case of `Cn1cc(-c2ccc(Cc3cc(C(=O)NC4CCOCC4)c4ncnn4c3)cn2)cn1` [compound 14, 6-[[6-(1-methylpyrazol-4-yl)-3-pyridyl]methyl]-N-tetrahydropyran-4-yl-[1,2,4]triazolo[1,5-a]pyridine-8-carboxamide], the maximal effect (Emax) was found to be 45%.
Same read-out and setting: as for `Cn1cc(-c2ccc(Cc3cc(C(=O)NC4CC5(COC5)C4)c4ncnn4c3)cn2)cn1` [compound 15, 6-[[6-(1-methylpyrazol-4-yl)-3-pyridyl]methyl]-N-(2-oxaspiro[3.3]heptan-6-yl)-[1,2,4]triazolo[1,5-a]pyridine-8-carboxamide], the figure is 65%; as for `Cn1cc(-c2ccc(Cc3cc(C(=O)N[C@@H]4CC[C@H]4O)c4ncnn4c3)cn2)cn1` [compound 16, N-[(1R,2R)-2-hydroxycyclobutyl]-6-[[6-(1-methylpyrazol-4-yl)-3-pyridyl]methyl]-[1,2,4]triazolo[1,5-a]pyridine-8-carboxamide], 67%.
Turning to `Cn1cc(-c2ccc(Cc3cc(C(=O)N[C@H]4CCC[C@@H]4O)c4ncnn4c3)cn2)cn1` [compound 17, N-[(1S,2S)-2-hydroxycyclopentyl]-6-[[6-(1-methylpyrazol-4-yl)-3-pyridyl]methyl]-[1,2,4]triazolo[1,5-a]pyridine-8-carboxamide], the EC50 was 3770 nM and the maximal response (Emax) was 86%.
The like results for `O=C(N[C@H]1CCOC[C@@H]1O)c1cc(Cc2ccc(-n3cccn3)cc2)cc2ncnn12` [compound 18, N-[(3R,4S)-3-hydroxytetrahydropyran-4-yl]-7-[(4-pyrazol-1-ylphenyl)methyl]-[1,2,4]triazolo[1,5-a]pyridine-5-carboxamide] were, in that order, 4440 nM and 81%.
For `O=C(N[C@H]1CCCC[C@@H]1O)c1cc(Cc2ccc(-n3cccn3)cc2)cn2cnnc12` [compound 19, N-[(1S,2S)-2-hydroxycyclohexyl]-6-[(4-pyrazol-1-ylphenyl)methyl]-[1,2,4]triazolo[4,3-a]pyridine-8-carboxamide] the same measures were 1710 nM and 74%.

For orientation: EC50 means the concentration giving half of the maximal effect. Broadly, the Emax is the maximal effect, on the per cent scale that the assay sets.

The values are drawn from patent publication US20200131180A1, “POSITIVE ALLOSTERIC MODULATORS OF THE MUSCARINIC ACETYLCHOLINE RECEPTOR M1” (Vanderbilt University, priority 2018, published 2020).
